Source: article PMC3961306, “Comparison of the Cancer Gene Targeting and Biochemical Selectivities of All Targeted Kinase Inhibitors Approved for Clinical Use” (PLoS ONE, 2014)

What was measured:
Test in all cases: Kinase profiling in a biochemical assay panel (mobility shift assays and ELISA), %-inhibition at 1 μM; selectivity entropy
[1] = target: panel of more than 300 wild-type and mutant kinases (313 kinase panel) (Homo sapiens, UniProt P14616); conditions: kinase IRR; compound at 1 μM
[2] = target: T1, panel of more than 300 wild-type and mutant kinases (313 kinase panel) (Homo sapiens, UniProt P54762)
T1 sequence (P54762 18-984): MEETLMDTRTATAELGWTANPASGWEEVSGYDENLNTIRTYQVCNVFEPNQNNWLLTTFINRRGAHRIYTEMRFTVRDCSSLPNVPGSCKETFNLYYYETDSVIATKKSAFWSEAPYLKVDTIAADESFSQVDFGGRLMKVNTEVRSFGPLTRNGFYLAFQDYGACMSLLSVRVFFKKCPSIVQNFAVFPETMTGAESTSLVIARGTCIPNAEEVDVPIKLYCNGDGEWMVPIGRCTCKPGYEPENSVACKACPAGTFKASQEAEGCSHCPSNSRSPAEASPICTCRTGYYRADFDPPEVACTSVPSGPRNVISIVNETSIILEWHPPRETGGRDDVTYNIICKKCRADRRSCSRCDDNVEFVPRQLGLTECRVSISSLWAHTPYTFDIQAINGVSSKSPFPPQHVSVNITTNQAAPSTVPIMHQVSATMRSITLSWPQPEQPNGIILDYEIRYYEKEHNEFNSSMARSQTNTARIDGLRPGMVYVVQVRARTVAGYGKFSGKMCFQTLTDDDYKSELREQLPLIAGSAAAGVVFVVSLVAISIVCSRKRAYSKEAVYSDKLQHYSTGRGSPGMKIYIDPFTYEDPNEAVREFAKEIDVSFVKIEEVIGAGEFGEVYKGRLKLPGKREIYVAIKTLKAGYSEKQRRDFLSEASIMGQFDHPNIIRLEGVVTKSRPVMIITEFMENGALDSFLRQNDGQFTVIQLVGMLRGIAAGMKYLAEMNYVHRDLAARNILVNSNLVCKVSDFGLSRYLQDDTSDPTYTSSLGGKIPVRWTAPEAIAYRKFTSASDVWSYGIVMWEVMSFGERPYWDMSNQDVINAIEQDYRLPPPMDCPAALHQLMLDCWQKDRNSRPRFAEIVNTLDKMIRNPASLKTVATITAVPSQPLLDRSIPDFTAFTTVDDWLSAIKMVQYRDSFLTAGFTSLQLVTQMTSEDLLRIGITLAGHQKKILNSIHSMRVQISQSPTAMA

[3] = target: T2, panel of more than 300 wild-type and mutant kinases (313 kinase panel) (Homo sapiens, UniProt P33981); conditions: kinase TTK; compound at 1 μM
T2 sequence (P33981 1-857): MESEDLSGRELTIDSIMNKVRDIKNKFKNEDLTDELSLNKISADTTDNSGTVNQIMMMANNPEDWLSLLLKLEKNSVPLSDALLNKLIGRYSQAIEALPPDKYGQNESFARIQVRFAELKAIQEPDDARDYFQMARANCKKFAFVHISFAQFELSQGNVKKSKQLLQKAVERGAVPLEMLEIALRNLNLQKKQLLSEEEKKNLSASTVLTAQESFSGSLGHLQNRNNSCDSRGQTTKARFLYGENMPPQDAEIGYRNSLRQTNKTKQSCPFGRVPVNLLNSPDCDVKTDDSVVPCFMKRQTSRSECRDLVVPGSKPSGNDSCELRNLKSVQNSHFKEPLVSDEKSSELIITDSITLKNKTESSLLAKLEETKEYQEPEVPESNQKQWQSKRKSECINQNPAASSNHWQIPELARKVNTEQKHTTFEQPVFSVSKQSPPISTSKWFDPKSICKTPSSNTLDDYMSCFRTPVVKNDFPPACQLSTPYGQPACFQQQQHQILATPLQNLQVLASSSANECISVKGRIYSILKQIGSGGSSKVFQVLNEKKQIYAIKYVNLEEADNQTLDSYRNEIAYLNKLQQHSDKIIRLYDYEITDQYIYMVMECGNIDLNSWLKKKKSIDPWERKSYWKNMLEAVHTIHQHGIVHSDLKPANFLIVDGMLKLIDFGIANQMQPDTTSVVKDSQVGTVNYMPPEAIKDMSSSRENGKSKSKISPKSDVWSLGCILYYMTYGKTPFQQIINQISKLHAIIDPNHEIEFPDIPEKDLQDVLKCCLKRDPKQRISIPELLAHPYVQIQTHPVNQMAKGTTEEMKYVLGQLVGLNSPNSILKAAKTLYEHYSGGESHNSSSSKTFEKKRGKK

[4] = target: panel of more than 300 wild-type and mutant kinases (313 kinase panel) (Homo sapiens, UniProt Q05655); conditions: kinase PKCδ; 1 μM
[5] = target: panel of more than 300 wild-type and mutant kinases (313 kinase panel) (Homo sapiens, UniProt Q8TDX7); conditions: kinase NEK7; 1 μM
[6] = target: T3, panel of more than 300 wild-type and mutant kinases (313 kinase panel) (Homo sapiens, UniProt Q13043); conditions: kinase MST1; 1 μM
T3 sequence (Q13043 1-487): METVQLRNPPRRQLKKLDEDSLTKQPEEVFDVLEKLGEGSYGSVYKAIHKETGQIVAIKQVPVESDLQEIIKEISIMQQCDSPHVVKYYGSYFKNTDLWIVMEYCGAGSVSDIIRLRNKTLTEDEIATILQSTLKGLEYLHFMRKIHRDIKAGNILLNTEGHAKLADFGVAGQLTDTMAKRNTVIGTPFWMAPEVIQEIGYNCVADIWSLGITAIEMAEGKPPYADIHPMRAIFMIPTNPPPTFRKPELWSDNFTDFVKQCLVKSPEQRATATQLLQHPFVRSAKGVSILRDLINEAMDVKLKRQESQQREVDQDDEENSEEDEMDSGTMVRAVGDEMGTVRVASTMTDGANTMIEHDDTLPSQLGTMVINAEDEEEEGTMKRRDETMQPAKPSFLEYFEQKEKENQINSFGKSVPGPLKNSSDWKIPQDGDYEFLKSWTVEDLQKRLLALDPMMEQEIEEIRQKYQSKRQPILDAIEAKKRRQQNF

[7] = target: panel of more than 300 wild-type and mutant kinases (313 kinase panel) (Homo sapiens, UniProt O14578); conditions: kinase CRIK; compound at 1 μM
panel of more than 300 wild-type and mutant kinases (313 kinase panel) (Homo sapiens, UniProt O14578), sequence (O14578 whole entry, change not shown): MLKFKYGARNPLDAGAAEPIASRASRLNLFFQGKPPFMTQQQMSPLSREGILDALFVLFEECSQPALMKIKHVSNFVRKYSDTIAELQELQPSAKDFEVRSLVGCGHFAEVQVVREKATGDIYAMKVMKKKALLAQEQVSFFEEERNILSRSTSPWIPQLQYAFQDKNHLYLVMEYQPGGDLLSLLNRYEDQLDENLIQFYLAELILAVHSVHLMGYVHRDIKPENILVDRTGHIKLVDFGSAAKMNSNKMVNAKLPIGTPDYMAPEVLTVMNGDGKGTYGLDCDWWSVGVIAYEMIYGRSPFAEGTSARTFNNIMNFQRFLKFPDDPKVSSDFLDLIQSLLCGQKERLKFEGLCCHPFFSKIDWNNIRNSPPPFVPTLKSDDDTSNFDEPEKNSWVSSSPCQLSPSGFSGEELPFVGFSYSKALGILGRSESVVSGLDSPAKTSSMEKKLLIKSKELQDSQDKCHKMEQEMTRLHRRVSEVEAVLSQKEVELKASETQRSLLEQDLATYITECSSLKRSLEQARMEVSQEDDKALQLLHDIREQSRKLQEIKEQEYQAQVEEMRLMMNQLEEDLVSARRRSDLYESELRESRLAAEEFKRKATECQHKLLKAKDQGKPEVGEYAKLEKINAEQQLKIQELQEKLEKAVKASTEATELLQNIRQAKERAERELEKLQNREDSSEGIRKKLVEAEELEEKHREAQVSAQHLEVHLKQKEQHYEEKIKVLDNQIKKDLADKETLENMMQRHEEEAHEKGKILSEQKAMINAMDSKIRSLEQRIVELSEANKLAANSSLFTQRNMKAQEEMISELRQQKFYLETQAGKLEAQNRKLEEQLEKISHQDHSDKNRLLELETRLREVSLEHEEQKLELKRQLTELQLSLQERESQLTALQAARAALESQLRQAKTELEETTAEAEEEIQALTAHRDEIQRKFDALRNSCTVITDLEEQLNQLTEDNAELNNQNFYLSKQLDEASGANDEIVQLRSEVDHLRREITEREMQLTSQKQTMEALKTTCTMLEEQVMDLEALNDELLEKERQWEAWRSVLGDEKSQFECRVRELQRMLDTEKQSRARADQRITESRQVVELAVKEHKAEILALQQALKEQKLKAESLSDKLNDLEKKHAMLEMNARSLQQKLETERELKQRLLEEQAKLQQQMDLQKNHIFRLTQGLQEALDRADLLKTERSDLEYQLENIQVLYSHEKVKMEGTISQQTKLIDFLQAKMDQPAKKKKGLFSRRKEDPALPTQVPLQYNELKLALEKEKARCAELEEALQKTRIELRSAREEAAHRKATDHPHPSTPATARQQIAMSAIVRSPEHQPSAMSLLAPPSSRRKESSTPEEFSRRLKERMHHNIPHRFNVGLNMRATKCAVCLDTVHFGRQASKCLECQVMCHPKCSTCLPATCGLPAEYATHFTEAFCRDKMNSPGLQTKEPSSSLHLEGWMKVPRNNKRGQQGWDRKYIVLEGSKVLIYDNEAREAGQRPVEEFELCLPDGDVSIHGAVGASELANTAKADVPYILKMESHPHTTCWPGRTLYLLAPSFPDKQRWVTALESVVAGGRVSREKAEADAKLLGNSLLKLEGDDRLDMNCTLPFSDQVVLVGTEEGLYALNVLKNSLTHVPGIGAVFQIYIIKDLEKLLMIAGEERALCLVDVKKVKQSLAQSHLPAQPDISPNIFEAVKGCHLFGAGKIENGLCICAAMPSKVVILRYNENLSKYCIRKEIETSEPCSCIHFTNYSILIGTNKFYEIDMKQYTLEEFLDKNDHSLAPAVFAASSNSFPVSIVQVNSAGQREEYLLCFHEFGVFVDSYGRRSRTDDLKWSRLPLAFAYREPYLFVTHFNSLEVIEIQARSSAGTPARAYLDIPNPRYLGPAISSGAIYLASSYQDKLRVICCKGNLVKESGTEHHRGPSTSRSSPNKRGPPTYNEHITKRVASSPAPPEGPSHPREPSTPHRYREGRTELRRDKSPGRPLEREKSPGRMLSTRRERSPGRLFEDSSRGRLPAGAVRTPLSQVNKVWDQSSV

panel of more than 300 wild-type and mutant kinases (313 kinase panel) (Homo sapiens, UniProt P14616), sequence (P14616 27-1297, change not shown): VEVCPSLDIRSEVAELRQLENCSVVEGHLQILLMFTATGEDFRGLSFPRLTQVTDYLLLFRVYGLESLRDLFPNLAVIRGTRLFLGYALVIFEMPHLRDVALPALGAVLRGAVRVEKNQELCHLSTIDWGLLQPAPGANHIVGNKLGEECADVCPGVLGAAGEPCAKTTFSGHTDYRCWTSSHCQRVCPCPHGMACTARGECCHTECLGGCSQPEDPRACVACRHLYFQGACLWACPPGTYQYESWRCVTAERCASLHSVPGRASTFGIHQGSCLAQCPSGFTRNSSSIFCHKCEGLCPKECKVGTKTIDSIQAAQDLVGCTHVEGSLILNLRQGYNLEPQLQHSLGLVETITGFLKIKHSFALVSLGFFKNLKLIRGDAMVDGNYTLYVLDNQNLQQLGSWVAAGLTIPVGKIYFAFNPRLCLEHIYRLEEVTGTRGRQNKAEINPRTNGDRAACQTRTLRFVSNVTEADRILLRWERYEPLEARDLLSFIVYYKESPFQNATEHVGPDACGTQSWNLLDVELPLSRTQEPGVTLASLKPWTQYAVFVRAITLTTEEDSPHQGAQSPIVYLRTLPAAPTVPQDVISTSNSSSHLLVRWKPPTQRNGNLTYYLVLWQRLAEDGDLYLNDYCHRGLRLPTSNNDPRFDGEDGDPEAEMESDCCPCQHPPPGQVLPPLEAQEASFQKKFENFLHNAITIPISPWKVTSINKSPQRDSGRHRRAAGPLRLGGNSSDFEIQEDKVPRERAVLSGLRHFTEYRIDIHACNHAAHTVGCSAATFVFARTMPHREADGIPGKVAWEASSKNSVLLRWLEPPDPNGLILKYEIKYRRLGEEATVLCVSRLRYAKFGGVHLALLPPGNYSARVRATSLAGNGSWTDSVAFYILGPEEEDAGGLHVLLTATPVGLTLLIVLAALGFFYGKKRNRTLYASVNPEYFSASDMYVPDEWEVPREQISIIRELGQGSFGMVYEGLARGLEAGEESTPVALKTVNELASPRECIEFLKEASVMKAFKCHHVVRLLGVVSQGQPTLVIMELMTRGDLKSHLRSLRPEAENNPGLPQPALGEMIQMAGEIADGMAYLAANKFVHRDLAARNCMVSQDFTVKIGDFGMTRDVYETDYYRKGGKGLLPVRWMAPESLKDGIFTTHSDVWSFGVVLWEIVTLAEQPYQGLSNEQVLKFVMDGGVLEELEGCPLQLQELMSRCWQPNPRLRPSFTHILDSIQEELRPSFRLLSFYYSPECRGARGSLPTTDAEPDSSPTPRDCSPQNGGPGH

Compound	%-inhibition of IRR [1] [%]	%-inhibition of EPHB1 ([2]; kinase EPHB1, compound at 1 μM) [%]	%-inhibition of TTK [3] [%]	%-inhibition of PKCδ [4] [%]	%-inhibition of NEK7 [5] [%]	%-inhibition of MST1 [6] [%]	%-inhibition of CRIK [7] [%]	%-inhibition of EPHB1 ([2]; 1 µM) [%]
CO[C@H]1C[C@@H]2CC[C@@H](C)[C@@](O)(O2)C(=O)C(=O)N2CCCC[C@H]2C(=O)O[C@H]([C@H](C)C[C@@H]2CC[C@@H](OC(=O)C(C)(CO)CO)[C@H](OC)C2)CC(=O)[C@H](C)/C=C(\C)[C@@H](O)[C@@H](OC)C(=O)[C@H](C)C[C@H](C)/C=C/C=C/C=C/1C [temsirolimus]	-13	-1.86	-22	-4	-8	-2.42	-15	
CNC(=O)c1cc(Oc2ccc(NC(=O)Nc3ccc(Cl)c(C(F)(F)F)c3)c(F)c2)ccn1 [regorafenib]	-4	76	0.186	2.2	-13	-5.39	-18	
CO[C@H]1C[C@@H]2CC[C@@H](C)[C@@](O)(O2)C(=O)C(=O)N2CCCC[C@H]2C(=O)O[C@H]([C@H](C)C[C@@H]2CC[C@@H](OCCO)[C@H](OC)C2)CC(=O)[C@H](C)/C=C(\C)[C@@H](O)[C@@H](OC)C(=O)[C@H](C)C[C@H](C)/C=C/C=C/C=C/1C [everolimus]	0.808	-0.233	-2.68	-10	-11	-1.86	-14	
COc1cc2nccc(Oc3ccc(NC(=O)C4(C(=O)Nc5ccc(F)cc5)CC4)cc3)c2cc1OC [cabozantinib]	66	95	2.75	-0.835	-6	6	-10	
Cc1nc(Nc2ncc(C(=O)Nc3c(C)cccc3Cl)s2)cc(N2CCN(CCO)CC2)n1 [dasatinib]	-16						10	
COc1cc2c(Nc3ccc(Br)cc3F)ncnc2cc1OCC1CCN(C)CC1 [vandetanib]	-3.23	96	3	-5.39	-6	3.16	-2.19	
CC(C)(C)c1nc(-c2cccc(NS(=O)(=O)c3c(F)cccc3F)c2F)c(-c2ccnc(N)n2)s1 [dabrafenib]	10	12	-22	-6	2.28		-2.74	
Cc1ccc(Nc2nccc(N(C)c3ccc4c(C)n(C)nc4c3)n2)cc1S(N)(=O)=O [pazopanib]	16	27	31	-3	-4.75	2	-2	
N#CC[C@H](C1CCCC1)n1cc(-c2ncnc3[nH]ccc23)cn1 [ruxolitinib]	0.404		2	2	-1.81	12	8	31
C[C@@H](Oc1cc(-c2cnn(C3CCNCC3)c2)cnc1N)c1c(Cl)ccc(F)c1Cl [crizotinib]		93	-9	-1.14	-5.3	83	-12	
COc1cc(Nc2c(C#N)cnc3cc(OCCCN4CCN(C)CC4)c(OC)cc23)c(Cl)cc1Cl [bosutinib]	57			63			73	
Cc1ccc(C(=O)Nc2ccc(CN3CCN(C)CC3)c(C(F)(F)F)c2)cc1C#Cc1cnc2cccnn12 [ponatinib]				50	-10		61	
